In patent US8304539B2, “Fused heteroaryl modulators of glucocorticoid receptor, AP-1, and/or NF-κB activity and use thereof” (Bristol-Myers Squibb Company, priority 2008, dated 2012):

Target: T1, human full-length glucocorticoid receptor (Homo sapiens, UniProt P04150)
T1 construct: recombinantly expressed human full-length glucocorticoid receptor; purchased PanVera Co., Madison, Wis; P2816
T1 sequence (P04150 1-777): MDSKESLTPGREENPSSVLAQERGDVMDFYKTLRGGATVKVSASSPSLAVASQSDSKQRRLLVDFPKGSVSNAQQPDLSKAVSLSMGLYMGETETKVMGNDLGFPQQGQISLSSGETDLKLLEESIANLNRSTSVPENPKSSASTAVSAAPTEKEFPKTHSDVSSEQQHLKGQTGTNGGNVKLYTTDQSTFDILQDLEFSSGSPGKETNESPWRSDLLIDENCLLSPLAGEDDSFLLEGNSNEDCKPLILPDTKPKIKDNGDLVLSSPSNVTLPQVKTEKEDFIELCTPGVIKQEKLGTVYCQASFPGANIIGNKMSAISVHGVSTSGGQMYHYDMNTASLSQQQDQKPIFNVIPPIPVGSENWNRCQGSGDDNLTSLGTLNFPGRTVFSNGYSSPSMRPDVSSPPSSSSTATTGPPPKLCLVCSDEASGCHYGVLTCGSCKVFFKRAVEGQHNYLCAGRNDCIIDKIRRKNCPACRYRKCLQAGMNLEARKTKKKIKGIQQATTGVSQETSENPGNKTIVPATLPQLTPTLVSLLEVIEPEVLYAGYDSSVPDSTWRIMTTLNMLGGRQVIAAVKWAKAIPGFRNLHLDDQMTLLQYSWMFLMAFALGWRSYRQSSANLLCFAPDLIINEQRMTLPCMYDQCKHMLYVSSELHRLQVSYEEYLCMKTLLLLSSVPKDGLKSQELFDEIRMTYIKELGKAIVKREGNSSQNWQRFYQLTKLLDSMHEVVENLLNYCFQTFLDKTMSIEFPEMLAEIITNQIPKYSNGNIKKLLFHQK
Assay: GR binding Assay II (fluorescence polarization competitor assay)
Details: given where AP-1 EC50 is greater than 1 uM and/or maximal inhibition is less than 20%; read-out: GR (Ki, nM) (measured in GR binding Assay II)
Description: Glucocorticoid Receptor Binding Assay (II)
In order to measure the binding of compounds on the glucocorticoid receptor a commercially available kit was used (Glucocorticoid receptor competitor assay kit, PanVera Co., Madison, Wis., P2816). Briefly, a cell lysate containing recombinantly expressed human full-length glucocorticoid receptor was mixed with a fluorescently labeled glucocorticoid (1 nM Fluormone GS1) in the presence or absence of test compound. After one hour at room temperature, the fluorescence polarization (FP) of the samples were measured. The FP of a mixture of receptor, fluorescent probe (i.e. Fluormone GS1) and 1 mM dexamethasone represented background fluorescence or 100% inhibition, whereas, the FP of the mixture without dexamethasone was taken to be 100% binding. The percentage inhibition of test molecules were then compared to the sample with 1 mM dexamethasone and expressed as % relative binding activity with dexamethasone being 100% and no inhibition is 0%. Test molecules were analyzed in the concentration range from 2.4 nM to 40 microMolar.

SMILES	Ki
Cc1ccc2c(n1)Oc1nc(-c3ccc(C(=O)N4CCOCC4)cc3)ccc1[C@H]2C(C)(C)C(=O)Nc1nnn(C)n1 [Example 92, 2-methyl-2-((5S)-2-methyl-8-(4-(4-morpholinylcarbonyl)phenyl)-5H-pyrido[3′,2′:5,6]pyrano[2,3-b]pyridin-5-yl)-N-(2-methyl-2H-tetrazol-5-yl)propanamide]	153 nM
CC(C)(C(=O)Nc1nnc(C(=O)NC2CC2)s1)C1c2cccnc2Oc2nc(-c3ccc(C(=O)N4CCOCC4)cc3)ccc21 (centres unmarked) [Example 6]	59 nM
Cc1ccc2c(n1)Oc1nc(-c3ccc(OC(C)C)nc3)ccc1[C@H]2C(C)(C)C(=O)Nc1nncs1 [Example 74]	27.6 nM
Cc1ccc2c(n1)Oc1nc(-c3ccc(S(C)(=O)=O)cc3)ccc1[C@H]2C(C)(C)C(=O)Nc1nncs1 [Example 37, 2-methyl-2-((5S)-2-methyl-8-(4-(methylsulfonyl)phenyl)-5H-pyrido[3′,2′:5,6]pyrano[2,3-b]pyridin-5-yl)-N-1,3,4-thiadiazol-2-ylpropanamide]	78.9 nM
Cc1ccc2c(n1)Oc1nc(-c3ccc(C(=O)NC(C)(C)C)cc3)ccc1[C@H]2C(C)(C)C(=O)Nc1nncs1 [Example 26]	591 nM
Cc1ccc2c(n1)Oc1nc(-c3ccc(CC(C)C)cc3)ccc1[C@H]2C(C)(C)C(=O)Nc1nncs1 [Example 77]	2.53 nM
Cc1ccc2c(n1)Oc1nc(-c3ccc(C(=O)N(C)C)cc3)ccc1[C@H]2C(C)(C)C(=O)Nc1ncc(C(=O)N2CCOCC2)s1 [Example 52]	411 nM
Cc1ccc2c(n1)Oc1nc(-c3ccc(C(=O)N4CCCC4)c(F)c3)ccc1[C@H]2C(C)(C)C(=O)Nc1nncs1 [Example 28]	14.2 nM
Cc1ccc2c(n1)Oc1nc(-c3ccc(C(=O)N(C)C)cc3)ccc1[C@H]2C(C)(C)C(=O)Nc1nnc(C(=O)NC2CC2)s1 [Example 43]	11.6 nM
Cc1ccc2c(n1)Oc1nc(-c3ccc(C(=O)N4CCC[C@@H]4C(N)=O)cc3)ccc1[C@H]2C(C)(C)C(=O)Nc1nnc(C)s1 [Example 91]	122 nM
Cc1ccc2c(n1)Oc1nc(-c3ccc(S(=O)(=O)N(C)C)cc3)ccc1[C@H]2C(C)(C)C(=O)Nc1nncs1 [Example 25]	172 nM
Cc1ccc2c(n1)Oc1nc(-c3ccc(OC(F)(F)F)cc3)ccc1[C@H]2C(C)(C)C(=O)Nc1nncs1 [Example 24]	2.66 nM
CNC(=O)c1cnc(NC(=O)C(C)(C)[C@H]2c3ccc(C)nc3Oc3nc(-c4ccc(C(=O)N(C)C)cc4)ccc32)s1 [Example 51]	423 nM
CNC(=O)c1nnc(NC(=O)C(C)(C)[C@H]2c3ccc(C)nc3Oc3nc(-c4ccc(C(=O)N(C)C)cc4)ccc32)s1 [Example 45]	134 nM
CCN(C)C(=O)c1ccc(-c2ccc3c(n2)Oc2ncccc2C3C(C)(C)C(=O)Nc2nnc(C(=O)NC3CC3)s2)cc1 (centres unmarked) [Example 7]	65.6 nM
C=Cc1ccc2c(n1)Oc1nc(-c3ccc(C(=O)N(C)C)cc3)ccc1C2C(C)(C)C(=O)Nc1nncs1 (centres unmarked) [Example 64, 4-(5-(1,1-dimethyl-2-oxo-2-(1,3,4-thiadiazol-2-ylamino)ethyl)-8-vinyl-5H-pyrido[3′,2′:5,6]pyrano[2,3-b]pyridin-2-yl)-N,N-dimethylbenzamide]	80.8 nM

Now from value to compound:

Ki	SMILES
2.15 nM	CCSc1ccc(-c2ccc3c(n2)Oc2nc(C)ccc2[C@@H]3C(C)(C)C(=O)Nc2nncs2)cc1 [Example 78]
199 nM	CC(C)(C(=O)Nc1nncs1)C1c2ccncc2Oc2nc(-c3ccc(C(=O)N4CCOCC4)cc3)ccc21 (centres unmarked) [Example 2, 2-methyl-2-(2-(4-(4-morpholinylcarbonyl)phenyl)-5H-pyrido[4′,3′:5,6]pyrano[2,3-b]pyridin-5-yl)-N-1,3,4-thiadiazol-2-ylpropanamide]
40.5 nM	Cc1ccc2c(n1)Oc1nc(-c3ccc(OC(C)(C)C)cc3)ccc1[C@H]2C(C)(C)C(=O)Nc1nncs1 [Example 79]
269 nM	Cc1ccc2c(n1)Oc1nc(Cl)ccc1C2C(C)(C)C(=O)Nc1nncs1 (centres unmarked) [Example 19]
67.2 nM	CCN(C)C(=O)c1ccc(-c2ccc3c(n2)Oc2nc(C)ccc2[C@@H]3C(C)(C)C(=O)Nc2nnc(C(=O)NCCO)s2)cc1 [Example 85]
385 nM	CN(C)C(=O)c1ccc(-c2ccc3c(n2)Oc2nc(N4CCCC4)ccc2C3C(C)(C)C(=O)Nc2nncs2)cc1 (centres unmarked) [Example 70, 4-(5-(1,1-dimethyl-2-oxo-2-(1,3,4-thiadiazol-2-ylamino)ethyl)-8-(1-pyrrolidinyl)-5H-pyrido[3′,2′:5,6]pyrano[2,3-b]pyridin-2-yl)-N,N-dimethylbenzamide]
4.59 nM	Cc1ccc2c(n1)Oc1nc(-c3ccc(Oc4ccccc4)cc3)ccc1[C@H]2C(C)(C)C(=O)Nc1nncs1 [Example 23]
1150 nM	Cc1ccc2c(n1)Oc1nc(-c3ccc(CN4CCCC4)cc3)ccc1[C@H]2C(C)(C)C(=O)Nc1nncs1 [Example 80]
1150 nM	CCN(C)C(=O)c1ccc(-c2ccc3c(n2)Oc2c(ccc[n+]2[O-])C3C(C)(C)C(=O)Nc2nncs2)cc1 (centres unmarked) [Example 84, 4-(5-(1,1-dimethyl-2-oxo-2-(1,3,4-thiadiazol-2-ylamino)ethyl)-9-oxido-5H-pyrido[3′,2′:5,6]pyrano[2,3-b]pyridin-2-yl)-N-ethyl-N-methylbenzamide]
38.2 nM	Cc1ccc2c(n1)Oc1nc(-c3ccc(C(=O)N4CCC(F)(F)C4)c(F)c3)ccc1[C@H]2C(C)(C)C(=O)Nc1nncs1 [Example 39]
657 nM	CN(C)C(=O)c1ccc(-c2ccc3c(n2)Oc2nc(-c4ccccc4)ccc2C3C(C)(C)C(=O)Nc2nncs2)cc1 (centres unmarked) [Example 65, 4-(5-(1,1-dimethyl-2-oxo-2-(1,3,4-thiadiazol-2-ylamino)ethyl)-8-phenyl-5H-pyrido[3′,2′:5,6]pyrano[2,3-b]pyridin-2-yl)-N,N-dimethylbenzamide]
68.9 nM	CN(C)C(=O)c1ccc(-c2ccc3c(n2)Oc2nc(N4CCOCC4)ccc2C3C(C)(C)C(=O)Nc2nncs2)cc1 (centres unmarked) [Example 69, 4-(5-(1,1-dimethyl-2-oxo-2-(1,3,4-thiadiazol-2-ylamino)ethyl)-8-(4-morpholinyl)-5H-pyrido[3′,2′:5,6]pyrano[2,3-b]pyridin-2-yl)-N,N-dimethylbenzamide]
25.2 nM	Cc1ccc2c(n1)Oc1nc(-c3ccc(S(=O)(=O)C(C)C)cc3)ccc1[C@H]2C(C)(C)C(=O)Nc1nncs1 [Example 83]
13.5 nM	Cc1ccc2c(n1)Oc1nc(-c3ccc(OC4CCCC4)cc3)ccc1[C@H]2C(C)(C)C(=O)Nc1nncs1 [Example 75]
103 nM	Cc1ccc2c(n1)Oc1nc(-c3ccc(C(=O)N4CCC[C@@H]4C(N)=O)cc3)ccc1[C@H]2C(C)(C)C(=O)Nc1nncs1 [Example 90]
149 nM	CCN(C)C(=O)c1ccc(-c2ccc3c(n2)Oc2nc(C)ccc2[C@@H]3C(C)(C)C(=O)Nc2nnc(C(=O)N(C)C)s2)cc1 [Example 47]
